This note sets out measurements from PubChem BioAssay (NCI).

Where “and” joins values, the source holds several entries; their conditions need not be identical. Equal values may be shown once.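 Five concentrations, 48 hours, 96-well plates. GI50: concentration for 50% inhibition of growth. Definition used: TGI = concentration required for complete inhibition of growth.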 A value given as a limit tells only on which side of the number the result lay.

Test systems include COLO 205 colon; U251 CNS; SF-295 CNS; HT29 colon; SF-268 CNS; OVCAR-4 ovarian; K-562 leukemia; NCI-H522 lung; SR leukemia; A498 renal.
Common to all, as to assay: NCI-60 cell line screen, 48 h

For `O=C(O)Cc1ccccc1`, the GI50 in the experiment with COLO 205 colon, in the experiment with U251 CNS, in the experiment on SF-268 CNS, in the experiment with OVCAR-4 ovarian, in the experiment with K-562 leukemia and in the experiment on NCI-H522 lung was > 1000 µM in each case. In addition, the GI50 in the experiment on A498 renal is > 1000 µM. Besides, the TGI with COLO 205 colon was > 2000 µM; with U251 CNS it was > 2000 µM; in the experiment with SF-295 CNS, > 2000 µM; with HT29 colon it was > 2000 µM; with SF-268 CNS, > 2000 µM; in the experiment on OVCAR-4 ovarian it was > 1000 µM and 727 µM. Moreover, the TGI with K-562 leukemia is > 1000 µM and 1010 µM; in the experiment on NCI-H522 lung it was > 2000 µM; in the experiment with SR leukemia it was > 1000 µM; with A498 renal, > 1000 µM and 1700 µM.
As for `O=C(/C=C/c1cccnc1)/C=C/c1cccnc1`, the GI50 is 1.35 µM in the experiment on COLO 205 colon; 0.547 µM in the experiment with U251 CNS; 3.73 µM in the experiment with SF-295 CNS; 1.3 µM with HT29 colon; 2.73 µM with SF-268 CNS; 2 µM in the experiment with OVCAR-4 ovarian. For the same molecule, the GI50 in the experiment with K-562 leukemia was 0.383 µM; in the experiment on NCI-H522 lung, 1.77 µM; in the experiment on SR leukemia, 0.196 µM; in the experiment on A498 renal it was 1.94 µM. The TGI in the experiment with COLO 205 colon was determined as 2.77 µM; with U251 CNS, 1.78 µM; with SF-295 CNS it was 13.1 µM; in the experiment with HT29 colon, 3.13 µM; in the experiment with SF-268 CNS, 7.77 µM; in the experiment with OVCAR-4 ovarian, 4.52 µM. The results for the TGI in the experiment on NCI-H522 lung, with SR leukemia and with A498 renal were 4.69 µM, > 100 µM and 4.66 µM, respectively.
`COc1ccc2c(c1)C(=O)/C(=C/c1ccc(OCC(=O)c3ccc(Cl)cc3)cc1)O2`: the GI50 was 4.64 µM in the experiment on COLO 205 colon; 15.5 µM with U251 CNS; 30.9 µM in the experiment with SF-295 CNS; 20.1 µM in the experiment on HT29 colon; 18.4 µM in the experiment with SF-268 CNS; 13.3 µM with OVCAR-4 ovarian. For the same molecule, the GI50 is 1.77 µM in the experiment on K-562 leukemia, 3.77 µM with NCI-H522 lung, 2.15 µM in the experiment with SR leukemia and 48.9 µM in the experiment with A498 renal. The TGI in the experiment with COLO 205 colon was 18 µM; in the experiment on U251 CNS, 35.3 µM; in the experiment with SF-295 CNS, > 100 µM; in the experiment with HT29 colon, 40.7 µM; in the experiment on SF-268 CNS, 48.6 µM; in the experiment with OVCAR-4 ovarian, 36.7 µM. Also, the TGI was 4.64 µM in the experiment on K-562 leukemia, 15.7 µM in the experiment on NCI-H522 lung, 6.34 µM in the experiment on SR leukemia and > 100 µM with A498 renal.
Consider `O=C1/C(=C\c2ccccc2)CN(C(=O)c2ccccc2F)C/C1=C\c1ccccc1`, for which the GI50 is 2.05 µM with COLO 205 colon; 1.68 µM in the experiment on U251 CNS; 2.24 µM in the experiment with SF-295 CNS; 1.48 µM with HT29 colon; 2.8 µM in the experiment with SF-268 CNS; 3.04 µM in the experiment on OVCAR-4 ovarian. Besides, the GI50 with K-562 leukemia was 0.992 µM; in the experiment on NCI-H522 lung it was 1.78 µM; in the experiment with SR leukemia it was 0.407 µM; in the experiment with A498 renal, 2.63 µM. Moreover, the TGI with COLO 205 colon turned out to be 4.03 µM; in the experiment on U251 CNS it was 3.26 µM; in the experiment with SF-295 CNS, 5.77 µM; in the experiment on HT29 colon it was 4.17 µM; in the experiment on SF-268 CNS it was 8.85 µM; in the experiment with OVCAR-4 ovarian it was 11.2 µM. Moreover, the TGI in the experiment with K-562 leukemia is > 20.7 µM; with NCI-H522 lung it was 3.47 µM; in the experiment with SR leukemia it was 3.45 µM; with A498 renal, 13.2 µM.
For the molecule `C/C(=N\NC(=S)Nc1ccccc1)c1ccccn1`, the GI50 with COLO 205 colon was 0.0119 µM; in the experiment with U251 CNS it was 0.0366 µM; with SF-295 CNS it was 0.109 µM; with HT29 colon, 0.0203 µM; in the experiment on SF-268 CNS, 0.205 µM; in the experiment with OVCAR-4 ovarian it was 0.0362 µM. Also, the GI50 was < 0.01 µM in the experiment on K-562 leukemia, 0.207 µM in the experiment on NCI-H522 lung, 0.0703 µM in the experiment on SR leukemia and 0.207 µM in the experiment with A498 renal. Besides, the TGI turned out to be 1.48 µM with COLO 205 colon; 2.39 µM with U251 CNS; 10.7 µM in the experiment with SF-295 CNS; 2.54 µM in the experiment with HT29 colon; 5.17 µM with SF-268 CNS; 1.78 µM in the experiment on OVCAR-4 ovarian. Moreover, the TGI in the experiment on K-562 leukemia was determined as 6.93 µM; with NCI-H522 lung, 1.61 µM; with SR leukemia, 11.3 µM; with A498 renal, 1.64 µM.
For `COc1ccc(C(NCCNC(c2ccc(OC)c(OC)c2)c2cc3c(cc2O)OCO3)c2cc3c(cc2O)OCO3)cc1OC` (stereo not given), the TGI with COLO 205 colon was > 26.1 µM; with U251 CNS, 7.03 µM; in the experiment with SF-295 CNS, 17.8 µM; in the experiment with HT29 colon, 9.69 µM; in the experiment on SF-268 CNS, 3.24 µM; with OVCAR-4 ovarian, 11.5 µM. Moreover, the TGI is > 28.1 µM in the experiment with K-562 leukemia, 3.52 µM in the experiment on NCI-H522 lung, 3.43 µM in the experiment on SR leukemia and 20.2 µM in the experiment on A498 renal.
As to `CC(=O)C(CN1CCOCC1)C(c1ccccc1)c1c(O)c2ccccc2oc1=O` (stereo not given), the TGI in the experiment with COLO 205 colon, in the experiment with U251 CNS, with SF-295 CNS, in the experiment on HT29 colon, in the experiment with SF-268 CNS and in the experiment on OVCAR-4 ovarian was > 100 µM in each case. In addition, the TGI in the experiment on K-562 leukemia, with NCI-H522 lung, in the experiment on SR leukemia and with A498 renal was > 100 µM in each case.
For the molecule `C#CCSc1nnnn1-c1ccc(Br)c(C)c1`, the GI50 was 27.2 µM with COLO 205 colon; 12 µM in the experiment on U251 CNS; 29.5 µM with SF-295 CNS; 30.3 µM with HT29 colon; 24.6 µM with SF-268 CNS; 31.1 µM in the experiment with OVCAR-4 ovarian. The GI50 is 27.6 µM with K-562 leukemia, 19.1 µM in the experiment on NCI-H522 lung, 19.8 µM with SR leukemia and 18.9 µM in the experiment on A498 renal. Also, the TGI was 84.3 µM with COLO 205 colon; > 100 µM in the experiment on U251 CNS; > 100 µM with SF-295 CNS; 96 µM with HT29 colon; > 100 µM in the experiment with SF-268 CNS; > 100 µM in the experiment on OVCAR-4 ovarian. In addition, the TGI with K-562 leukemia is > 100 µM; in the experiment on NCI-H522 lung it was 79.4 µM; in the experiment on SR leukemia, > 100 µM; in the experiment with A498 renal, 81.1 µM.
For the molecule `COc1cc(-c2cn(-c3ccc(Cl)cc3)c(=O)n2-c2ccccc2)cc(OC)c1OC`, the GI50 was 51 µM in the experiment with COLO 205 colon; 33.7 µM in the experiment with U251 CNS; 55.7 µM in the experiment with SF-295 CNS; 56.3 µM with HT29 colon; > 68.9 µM in the experiment with SF-268 CNS; 21.4 µM in the experiment on OVCAR-4 ovarian. Further, the GI50 in the experiment on K-562 leukemia is > 100 µM; with NCI-H522 lung, 45.1 µM; with A498 renal, 18.7 µM. For the same molecule, the TGI in the experiment on COLO 205 colon is > 100 µM; with U251 CNS, > 100 µM; in the experiment on SF-295 CNS, > 100 µM; in the experiment on HT29 colon, > 100 µM; in the experiment on SF-268 CNS, > 100 µM; in the experiment on OVCAR-4 ovarian it was > 90.7 µM. In addition, the TGI in the experiment on K-562 leukemia was > 100 µM; with NCI-H522 lung, > 100 µM; in the experiment with SR leukemia it was > 100 µM; with A498 renal, > 92.4 µM.
Take `CC[C@]12C=CCN3CC[C@]4(C(=C(C(=O)OC)C1)Nc1ccccc14)[C@@H]32`: the GI50 in the experiment with COLO 205 colon was 5.62 µM; with U251 CNS, 3.64 µM; in the experiment with SF-295 CNS, 13 µM; in the experiment on HT29 colon, 3.41 µM; in the experiment on SF-268 CNS it was 4.6 µM; with OVCAR-4 ovarian it was 4.4 µM. Also, the GI50 in the experiment on K-562 leukemia was 3.08 µM; with NCI-H522 lung it was 3.24 µM; in the experiment with SR leukemia, 2.55 µM; in the experiment on A498 renal it was 7.12 µM. Moreover, the TGI in the experiment with COLO 205 colon amounted to 20 µM; in the experiment with U251 CNS it was 16.4 µM; with SF-295 CNS it was 26.6 µM; with HT29 colon it was 12.8 µM; with SF-268 CNS, 19.3 µM; with OVCAR-4 ovarian it was 17.5 µM. In addition, the TGI was found to be 15.1 µM with K-562 leukemia, 14.1 µM in the experiment with NCI-H522 lung, 30.7 µM with SR leukemia and 20.2 µM in the experiment with A498 renal.
With `CCN(CC)c1ccc(/C=C/C2=[N+](C)c3ccccc3C2(C)C)cc1`, the GI50 in the experiment on COLO 205 colon is 0.161 µM; in the experiment on U251 CNS it was 0.201 µM; in the experiment on SF-295 CNS, 0.374 µM; in the experiment with HT29 colon, 0.148 µM; in the experiment on SF-268 CNS, 0.627 µM; with OVCAR-4 ovarian, 0.292 µM. Moreover, the GI50 in the experiment on K-562 leukemia is 3.44 µM; in the experiment on NCI-H522 lung, 0.274 µM; in the experiment with SR leukemia, > 20.9 µM; with A498 renal it was 1.65 µM. Further, the TGI in the experiment with COLO 205 colon is 0.392 µM; with U251 CNS it was 21.6 µM; with SF-295 CNS it was 22.2 µM; in the experiment with HT29 colon, > 40.5 µM; with SF-268 CNS, 33.2 µM; with OVCAR-4 ovarian, 29.7 µM. In addition, the TGI in the experiment on K-562 leukemia was > 100 µM; with NCI-H522 lung it was 21.8 µM; in the experiment with SR leukemia, > 100 µM; in the experiment on A498 renal, 12.2 µM.
As for `Cc1nc(N=C(N)N)nc2ccc3ccccc3c12`, the GI50 in the experiment on COLO 205 colon is 1.13 µM; in the experiment with U251 CNS it was 0.676 µM; in the experiment on SF-295 CNS it was 1.03 µM; in the experiment on HT29 colon, 1.95 µM; with SF-268 CNS it was 0.505 µM; with OVCAR-4 ovarian, 1.44 µM. The GI50 was 1.43 µM in the experiment on K-562 leukemia, 1.04 µM with NCI-H522 lung, 0.423 µM with SR leukemia and 1.54 µM in the experiment on A498 renal. Also, the TGI amounted to 3.13 µM in the experiment on COLO 205 colon; 2.29 µM with U251 CNS; 4.43 µM in the experiment on SF-295 CNS; 4.96 µM with HT29 colon; 2.55 µM in the experiment on SF-268 CNS; 5.1 µM with OVCAR-4 ovarian. Moreover, the TGI in the experiment with K-562 leukemia is 6.13 µM; in the experiment on NCI-H522 lung, 2.5 µM; with SR leukemia, 2.26 µM; with A498 renal it was 3.23 µM.
